Assay results taken from patent publication US8329646B2, “Methods for the treatment of muscle loss” (Nestec S.A., priority 2006, dated 2012).
“Also recorded” adds a separate entry of the source.

Key:
eIF2-α = assay: Densitometric analysis of Western blots of phosphorylated eIF2-α in C2C12 myotubes; assay type: cell-based, murine; settings: FIG. 2, FIG. 3, agent in combination with PIF, compared to PIF alone or to the control
Source text: (§1) In order to determine the efficacy of branched chain amino acids (BCAAs) and other agents in reducing muscle catabolism, murine C2C12 myotubes were exposed to PIF or Angiotensin II in combination with amino acids (including BCAAs), insulin, insulin-like growth factor-1 (IGF-1), and a PKR inhibitor. PIF was extracted and purified from MAC16 tumors as described by Smith et al., Effect of a Cancer Cachectic Factor on Protein Synthesis/Degradation in Murine C2C12 Myoblasts: Modulation by Eicosapentaenoic Acid, Cancer Research, 59:5507-13 (1999), which is hereby incorporated by reference. Protein degradation was determined using the method described by Whitehouse et al., Increased Expression of the Ubiquitin-Proteasome Pathway in Murine Myotubes by Proteolysis-Inducing Factor (PIF) is Associated with Activation of the Transcription Factor NF-κB, British Journal of Cancer, 89:1116-22 (2003), which is also hereby incorporated by reference.
The control sample was incubated only in phosphate buffered saline (PBS).

murine C2C12 myotubes [1] = assay: Protein synthesis in C2C12 myotubes exposed to PIF or Angiotensin II; assay type: cell-based; settings: for suppression of the inhibition of protein synthesis by PIF and Ang II: in the presence of PIF or Ang II; for reduction of protein synthesis when incubated alone: FIG. 6, FIG. 8, b61, compared to the control
Source text: as §1
The measured proteolytic activity of PIF can be more specifically described as ubiquitin-like degradation activity.

murine C2C12 myotubes [2] = assay: Protein degradation in C2C12 myotubes exposed to PIF or Angiotensin II; assay type: cell-based
Description: as §1, with “PIF” for “In order to determine the efficacy of branched chain amino acids (BCAAs) and other agents in reducing muscle catabolism, murine C2C12 myotubes were exposed to PIF or Angiotensin II in combination with amino acids (including BCAAs), insulin, insulin-like growth factor-1 (IGF-1), and a PKR inhibitor. PIF”

Molecule: insulin: an anabolic hormone
- eIF2-α phosphorylation in the presence of PIF (eIF2-α): significantly reduced; also recorded: completely attenuated
- suppression of the inhibition of protein synthesis by PIF and Ang II (murine C2C12 myotubes [1]): effective in suppressing the inhibition of protein synthesis

Molecule: CC(C)C[C@H](N)C(=O)O [leucine]
- eIF2-α phosphorylation in the presence of PIF (eIF2-α): reduced such phosphorylation to about the level of the control or below

Molecule: CC(C)[C@H](N)C(=O)O [valine]
- eIF2-α phosphorylation in the presence of PIF (eIF2-α): reduced such phosphorylation to about the level of the control or below

Molecule: N=C(N)NCCC[C@H](N)C(=O)O [arginine]
- eIF2-α phosphorylation in the presence of PIF (eIF2-α): greater than that of the control

Molecule: IGF-1: insulin-like growth factor-1
- eIF2-α phosphorylation in the presence of PIF (eIF2-α): significantly reduced
- eIF2-α phosphorylation in the presence of PIF (eIF2-α; listed as IGF1): completely attenuated
- suppression of the inhibition of protein synthesis by PIF and Ang II (murine C2C12 myotubes [1]): effective in suppressing the inhibition of protein synthesis

Molecule: CSCC[C@H](N)C(=O)O [methionine]
- eIF2-α phosphorylation in the presence of PIF (eIF2-α): greater than that of the control

Molecule: O=C1Nc2ccc3ncsc3c2/C1=C/c1cnc[nH]1 [PKR inhibitor]
- protein synthesis levels, PKR inhibitor added to PIF (murine C2C12 myotubes [1]; FIG. 6, in combination with PIF): reversed protein synthesis levels back to about those of the control
- protein synthesis levels, PKR inhibitor added to Angiotensin II (murine C2C12 myotubes [1]; FIG. 8, in combination with Angiotensin II): maintained protein synthesis levels at about that of the control
- protein degradation levels, PKR inhibitor added to PIF (murine C2C12 myotubes [2]; FIG. 5, in combination with PIF): reversed protein degradation levels back to about those of the control
- protein degradation levels, PKR inhibitor added to Angiotensin II (murine C2C12 myotubes [2]; FIG. 7, in combination with Angiotensin II): maintaining protein degradation levels at about that of the control

Molecule: Angiotensin II (DRVYIHPF; Angiotensin-2; UniProt P01019 25-32, looked up)
- reduction of protein synthesis when incubated alone (murine C2C12 myotubes [1]): about 40%
- reduction of protein synthesis when incubated alone (murine C2C12 myotubes [1]; listed as Ang II): 40%
- increase of protein degradation when incubated alone (murine C2C12 myotubes [2]; FIG. 5, FIG. 7, compared to the control): about 51%

Molecule: CC[C@H](C)[C@H](N)C(=O)O [isoleucine]
- eIF2-α phosphorylation in the presence of PIF (eIF2-α): reduced such phosphorylation to about the level of the control or below
